ChEMBL document CHEMBL1201862, “PubChem BioAssay data set” (2004)
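Grown in 96-well plates, cells were treated for 48 hours with each compound at five concentrations. Insufficient inhibition: endpoint recorded as highest concentration tested. GI50: concentration for 50% inhibition of growth.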 Activity calls are given as the source filed them. Rule as the data show it: active = GI50 up to about 1.1 µM and inactive = higher.

Key:
Assay in all cases: growth of human tumour cells (NCI), 48 h
[1] = tested on: A549
[2] = tested on: M14
[3] = tested on: OVCAR-3
[4] = tested on: SNB-75
[5] = tested on: BT-549
[6] = tested on: MDA-MB-435
[7] = tested on: PC-3
[8] = tested on: NCI-H522
[9] = tested on: HL-60
[10] = tested on: HCC 2998
[11] = tested on: SK-OV-3
[12] = tested on: T47D
[13] = tested on: MDA-MB-231
[14] = tested on: SK-MEL-5
[15] = tested on: SF-295
[16] = tested on: NCI-H23
[17] = tested on: HOP-92
[18] = tested on: SR
[19] = tested on: SN12C
[20] = tested on: NCI/ADR-RES

| Structure (SMILES) | GI50 [1] | GI50 [2] | GI50 [3] | GI50 [4] | GI50 [5] | GI50 [6] | GI50 [7] | GI50 [8] | GI50 [9] | GI50 [10] | GI50 [11] | GI50 [12] | GI50 [13] | GI50 [14] | GI50 [15] | GI50 [16] | GI50 [17] | GI50 [18] | GI50 [19] | GI50 [20] |
| --- | --- | --- | --- | --- | --- | --- | --- | --- | --- | --- | --- | --- | --- | --- | --- | --- | --- | --- | --- | --- |
| NCCc1c[nH]c2ccc(OC(=O)C(=O)O)cc12 | > 100 µM (inactive) | > 100 µM (inactive) | > 100 µM (inactive) | > 100 µM (inactive) | > 100 µM (inactive) | > 100 µM (inactive) | > 100 µM (inactive) | > 100 µM (inactive) | 0.302 µM (active) | > 100 µM (inactive) | > 100 µM (inactive) | > 100 µM (inactive) | > 100 µM (inactive) | > 100 µM (inactive) | > 100 µM (inactive) | > 100 µM (inactive) | > 100 µM (inactive) | > 100 µM (inactive) | > 100 µM (inactive) | > 100 µM (inactive) |
| CC1C(c2ccc3c(c2)OCO3)c2cc3c(cc2OC1N1CCOCC1)OCO3 (stereo not given) | 26.6 µM (inactive) | 24.7 µM (inactive) | 20 µM (inactive) | 32.8 µM (inactive) | 20 µM (inactive) | 5.6 µM (inactive) | 25.9 µM (inactive) | 9.04 µM (inactive) | 13.8 µM (inactive) | 18.2 µM (inactive) | 49.9 µM (inactive) | 13.6 µM (inactive) | 18.4 µM (inactive) | 17 µM (inactive) | 24 µM (inactive) | 26.5 µM (inactive) | 16.5 µM (inactive) | 10.6 µM (inactive) | 33.1 µM (inactive) | 15.8 µM (inactive) |
| O=CC(O)C(O)C1OC(=O)c2cc(O)c(O)c(O)c2C2=C(O)C(O)=C3OC(=O)c4c(c(O)c(O)c5c4C3C2C(=O)O5)-c2c(cc(O)c(O)c2O)C(=O)OCC1O (stereo not given) | 24.5 µM (inactive) | 22.4 µM (inactive) | 18.2 µM (inactive) | 27.4 µM (inactive) | > 100 µM (inactive) | 16.5 µM (inactive) | 43.7 µM (inactive) | 35.6 µM (inactive) | 12.3 µM (inactive) | 24.8 µM (inactive) | 25.9 µM (inactive) | 37.5 µM (inactive) | 19.1 µM (inactive) | 25.9 µM (inactive) | 26.4 µM (inactive) | 78 µM (inactive) | 18 µM (inactive) | 24.1 µM (inactive) | 15.2 µM (inactive) | 88.5 µM (inactive) |
| Cc1ccc(-c2cc(-c3ccco3)c(C#N)c(=S)[nH]2)cc1 | 43.9 µM (inactive) | 63.8 µM (inactive) | 61.7 µM (inactive) | 49.8 µM (inactive) | 42.8 µM (inactive) | 23.9 µM (inactive) | 28.3 µM (inactive) | 44.2 µM (inactive) | 57 µM (inactive) | 67.5 µM (inactive) | 39.9 µM (inactive) | 20.4 µM (inactive) | 43.2 µM (inactive) | 22.8 µM (inactive) | 38.7 µM (inactive) | 29.9 µM (inactive) | 99.5 µM (inactive) | 42.5 µM (inactive) | 87.9 µM (inactive) | > 100 µM (inactive) |
| Cc1ccc(S(=O)(=O)N2CCC[C@@H]2C(=O)O[C@@H]2CCC3CC=CC32)cc1 (stereo not given in full) | 34.5 µM (inactive) | 34.6 µM (inactive) | 12.1 µM (inactive) | 26.1 µM (inactive) | 18.9 µM (inactive) | 35.1 µM (inactive) | 21.4 µM (inactive) | 18.9 µM (inactive) | 11.5 µM (inactive) | 31.5 µM (inactive) | 22.2 µM (inactive) | 20.9 µM (inactive) | 45.9 µM (inactive) | 14.8 µM (inactive) | 36.8 µM (inactive) | 35.1 µM (inactive) | 15.3 µM (inactive) | 11.6 µM (inactive) | 28.1 µM (inactive) | 19.3 µM (inactive) |
| Cc1ccc(NC(=O)CSc2nc(O)nc3[nH]cnc23)cc1 | > 100 µM (inactive) | > 100 µM (inactive) | > 100 µM (inactive) | > 100 µM (inactive) | 54.5 µM (inactive) | 53.8 µM (inactive) | 97.5 µM (inactive) | > 100 µM (inactive) | > 100 µM (inactive) | > 100 µM (inactive) | > 100 µM (inactive) | > 100 µM (inactive) | > 100 µM (inactive) | 86.9 µM (inactive) | 62.7 µM (inactive) | > 100 µM (inactive) | > 100 µM (inactive) | 35.6 µM (inactive) | 30.5 µM (inactive) | 80.2 µM (inactive) |
| Cc1nc(-n2nc(-c3ccccc3)cc2-c2ccccc2)sc1C(/C=C\c1ccc([N+](=O)[O-])cc1)=N/NC(=S)NN | 18.7 µM (inactive) | 34.4 µM (inactive) | > 46.8 µM (inactive) | 74.3 µM (inactive) | 21.3 µM (inactive) | > 100 µM (inactive) | 28.2 µM (inactive) | 18.2 µM (inactive) | > 52.5 µM (inactive) | 13.8 µM (inactive) | > 85.7 µM (inactive) | 24.9 µM (inactive) | > 10 µM (inactive) | 27.7 µM (inactive) | 13.8 µM (inactive) | 22.1 µM (inactive) | > 100 µM (inactive) | 0.0948 µM (active) | 21.7 µM (inactive) | 26.9 µM (inactive) |
| CC[C@]1(Cc2ccc(OC)c(OC)c2)C=[N+]([O-])O[C@H](OC2CCCCC2c2ccccc2)[C@@H]1OC(C)=O (stereo not given in full) | 41.5 µM (inactive) | 45.3 µM (inactive) | 33.4 µM (inactive) | 32.2 µM (inactive) | 70.8 µM (inactive) | 50.6 µM (inactive) | 31.8 µM (inactive) | 25.6 µM (inactive) | 18.1 µM (inactive) | 43.5 µM (inactive) | 84.9 µM (inactive) | 24.7 µM (inactive) | 75.3 µM (inactive) | 38.1 µM (inactive) | 37.9 µM (inactive) | 56.1 µM (inactive) | 57.7 µM (inactive) | 22.8 µM (inactive) | 36.6 µM (inactive) | 41.8 µM (inactive) |
| Cc1cc2[nH]c(=NS(=O)(=O)c3cc(C)c(Cl)cc3S)[nH]c2cc1C | 35.7 µM (inactive) | 86.5 µM (inactive) | > 100 µM (inactive) | > 100 µM (inactive) | > 100 µM (inactive) | 65.5 µM (inactive) | 66.4 µM (inactive) | > 100 µM (inactive) | 28.7 µM (inactive) | > 100 µM (inactive) | > 100 µM (inactive) | 82.2 µM (inactive) | > 100 µM (inactive) | 32.7 µM (inactive) | 53.8 µM (inactive) | > 100 µM (inactive) | > 100 µM (inactive) | 19.4 µM (inactive) | > 100 µM (inactive) | 91.4 µM (inactive) |
| O=C1c2ccccc2CC12Cc1ccccc1C2 | 37.3 µM (inactive) | 49.1 µM (inactive) | 44 µM (inactive) | 18.2 µM (inactive) | 83.2 µM (inactive) | 55 µM (inactive) | 42 µM (inactive) | 36.6 µM (inactive) | 16.6 µM (inactive) | 18.5 µM (inactive) | > 100 µM (inactive) | 36.2 µM (inactive) | 66.7 µM (inactive) | 16.7 µM (inactive) | > 100 µM (inactive) | > 100 µM (inactive) | 31.4 µM (inactive) | 6.12 µM (inactive) | 69.3 µM (inactive) | 25.2 µM (inactive) |
| COc1cc(C(=O)O[C@@H]2[C@@H](OC(=O)c3cc(OC)c(OC)c(OC)c3)[C@@H](OC)O[C@@H]3CO[C@@H](c4ccccc4)O[C@@H]23)cc(OC)c1OC | > 100 µM (inactive) | > 100 µM (inactive) | > 100 µM (inactive) | 29.6 µM (inactive) | 50.4 µM (inactive) | > 100 µM (inactive) | > 100 µM (inactive) | > 100 µM (inactive) | > 100 µM (inactive) | > 100 µM (inactive) | > 100 µM (inactive) | > 100 µM (inactive) | > 100 µM (inactive) | > 100 µM (inactive) | > 100 µM (inactive) | > 100 µM (inactive) | > 100 µM (inactive) | > 100 µM (inactive) | > 100 µM (inactive) | > 100 µM (inactive) |
| CCOC(=O)Cc1nc2sc(S(N)(=O)=O)nn2c1Br | 33 µM (inactive) | 15.7 µM (inactive) | 36.6 µM (inactive) | 32.1 µM (inactive) | 32.1 µM (inactive) | 38.7 µM (inactive) | 22 µM (inactive) | 19.1 µM (inactive) | 25.5 µM (inactive) | 22.2 µM (inactive) | > 100 µM (inactive) | 27.3 µM (inactive) | 17.6 µM (inactive) | 16.1 µM (inactive) | > 100 µM (inactive) | 27.6 µM (inactive) | 22.8 µM (inactive) | 40.6 µM (inactive) | 23.5 µM (inactive) | 47.4 µM (inactive) |
| COc1ccc(CCNC(=O)[C@H]2CCCC[C@@H]2CCO)cc1OC | > 100 µM (inactive) | > 100 µM (inactive) | > 100 µM (inactive) | 88.7 µM (inactive) | > 100 µM (inactive) | > 100 µM (inactive) | > 100 µM (inactive) | > 100 µM (inactive) | > 100 µM (inactive) | > 100 µM (inactive) | > 100 µM (inactive) | > 100 µM (inactive) | > 100 µM (inactive) | > 100 µM (inactive) | > 100 µM (inactive) | > 100 µM (inactive) | > 100 µM (inactive) | > 100 µM (inactive) | > 100 µM (inactive) | > 100 µM (inactive) |
| CNC(=S)N/N=C/c1cccc(C)n1 | 39 µM (inactive) | 21.3 µM (inactive) | 29.9 µM (inactive) | 37.9 µM (inactive) | 23.5 µM (inactive) | 45 µM (inactive) | 42 µM (inactive) | 27.2 µM (inactive) | > 45.5 µM (inactive) | > 54 µM (inactive) | 37.2 µM (inactive) | 42.8 µM (inactive) | 39.3 µM (inactive) | 25.1 µM (inactive) | 32.7 µM (inactive) | 31.4 µM (inactive) | 55.8 µM (inactive) | > 41.9 µM (inactive) | 26.4 µM (inactive) | 23.8 µM (inactive) |
